From patent US12174172B2, “Method for evaluating the efficacy of a composition in reducing the effects of cancer therapeutics on skin” (Johnson & Johnson Consumer Inc., priority 2019, dated 2024)
Several values for one entry are separate records, joined by “and”; a condition that tells them apart may be missing. Equal entries are not always repeated. Entries after “also recorded” stand apart in the source; their conditions may differ. Where two headings read alike, the source gives them in different places. Marks after values point to notes of the source that are not given here.

Experiments:
involucrin (IVL) = experiment: 3D micro-epidermis model (EpiScreen): involucrin immunostaining; format: cell-based, human; settings: for activation at 0.1 µM / activation at 1 µM: Homo sapiens, 72 h; for activation at 0.1 µM: 100 nM; for IVL expression: Table 1 summary
Description: (§1) To assess the effects of such therapy molecules on the epidermis, keratinocytes were grown in the presence of kinase inhibitors during 3 days with high calcium concentration to induce keratinocyte differentiation and generate a 3D-stratified differentiated epidermis. Drug impact on the epidermis development was assessed via different keratinocyte markers including: • Ki-67, an universally expressed protein among proliferating cells and absent in the quiescent cells; • Filaggrin, a filament-associated protein that binds to keratin fibers and is a marker of terminal differentiation; • Desmoglein-1, a component of desmosomes and differentiation marker expressed in all epidermal layer above the basal layer; and • Involucrin, an early differentiation marker expressed in the spinous and granular layers and a protein precursor of the epidermal cornified envelope.
(§2) Human epidermal keratinocytes cells (HPEKs) from a juvenile donor (CellnTec, Switzerland) are cultured in flasks in proliferation medium. Keratinocytes are seeded at passage 6 into EpiScreen™ (Abzena, Cambridge, UK) plates containing collagen 1 coated disc micropatterns (CYTOO, Grenoble, France). Four hours later, unattached cells are washed off and a high calcium medium is added to induce keratinocytes differentiation. The day after, keratinocytes are treated with screening compounds, and Trichostatin A is added at 0.3 μM as an internal positive control. After three days of treatment, micro-epidermises are fixed with a formalin solution 10% for 30 minutes, then permeabilized with 0.1% Triton. Several immunostainings are performed: actin (Acti-Stain 555, PHDH1, Cytoskeleton), nuclei (Hoechst, H3570, Invitrogen), and one biomarker of interest per well either anti-involucrin (HPA055211, Sigma), anti-filaggrin (HPA030189, Sigma) or anti-desmoglein-1 (HPA022128, Sigma). Antibodies are added overnight at 4° C. before staining with secondary antibody, anti-rabbit 488 (711-545-152, Jackson) for 2 hours at room temperature.
(§3) Images of each well are acquired with the Operetta HCS platform (Perkin Elmer, Waltham, MA, USA) using a ×10 objective in confocal mode in eight z-planes from 2 μm to 44 μm in steps of 6 μm in each of the 3 channels: actin, nuclei, and one biomarker of interest. The first step of the image analysis consists in detecting micro-epidermis structures on the first z-plane by segmenting the actin staining. Micro-epidermis structures are validated based on several area and roundness min and max criteria. Then, the area of each biomarker staining is measured inside the valid micro-epidermis masks through each z-plane. For all homogeneous biomarker staining, their intensity through the different planes is measured.
(§4) The actin network of each micro-epidermis is analyzed in each z-plane in order to determine the average 3D structure edges. The biomarker intensity is measured in each z-plane for each structure, and then averaged with the other results generated in the same well. Based on the data generated in the two previous steps, an average 3D reconstruction image is generated. It consists of a meshwork that delimits the structure edges, and a color scaled volume that corresponds to the biomarkers distribution and expression.
The effect of 8 oncology molecules, selected from first generation EGFRi and pan-kinase inhibitors which mostly target VEGFR and second and third generation therapies targeting main mutations relating to first generation treatment resistance, were assessed in vitro using a 3D micro-epidermis model. […] The drug impact was assessed by analysis of tissue size and keratinocyte proliferation using Ki-67 staining and keratinocyte differentiation using filaggrin, desmoglein-1 and involucrin staining.
Size of the epidermis and the expression of the protein junction desmoglein-1 (DSG1), involucrin (IVL) and filaggrin (FLG) was assessed by immunostaining and compared to untreated control. […]

[1] = system: Human epidermal keratinocytes cells (HPEKs), 3D micro-epidermis; experiment: 3D micro-epidermis model (EpiScreen): epidermis size, toxicity, dose response, classification; format: cell-based; settings: for Dose in response: variation of protein expression at 3, 10, 30 nM (EGFRi) or 3, 10, 30, 100 nM (VEGFRi); for Dose in response / Dose/response: markers in brackets; for impact on all measured parameters / epidermis development: micro-epidermis model; for Dose/response: supplementary table, per run (1st or 2nd Run); for effect on desmoglein-1, involucrin and filaggrin expression (dose dependence): 3, 10, 30 nM;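 on all read-outs here: keratinocytes on micropatterned discs in high-calcium medium, drug exposure for three days, then fixation and confocal high-content imaging of actin, nuclei and a marker, vehicle DMSO-matched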
filaggrin (FLG) = experiment: 3D micro-epidermis model (EpiScreen): filaggrin immunostaining; format: cell-based, human; settings: for activation at 0.01 µM / activation at 0.1 µM / activation at 1 µM: Homo sapiens, 72 h; for FLG expression: Table 1 summary;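 on all read-outs here: human primary epidermal keratinocytes differentiated in high calcium into 3D micro-epidermises, compound-treated for three days, imaged by confocal high-content microscopy, filaggrin staining intensity quantified within actin-segmented structures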
[2] = cited from earlier work; for Cmax: maximal plasma concentration after a single daily-recommended dose, human; for Unbound fraction: unbound to plasma protein
[3] = most frequent cutaneous adverse reaction reported by the FDA Adverse Event Reporting System; cited from earlier work
desmoglein-1 (DSG1) [4] = experiment: 3D micro-epidermis model (EpiScreen): desmoglein-1 immunostaining; format: cell-based, human; settings: for DSG 3 nM / DSG 30 nM / activation at 0.01 µM / activation at 0.1 µM: supplementary data; for activation at 0.01 µM / activation at 0.1 µM: Homo sapiens, 72 h; for activation at 0.01 µM: 10 nM, read-out: DSG 10 nM; for activation at 0.1 µM: 100 nM, Tox = toxic, read-out: DSG 100 nM; for DSG-1 expression: Table 1 summary
Description: as §1, §2, §3, §4
The effect of 8 oncology molecules, selected from first generation EGFRi and pan-kinase inhibitors which mostly target VEGFR and second and third generation therapies targeting main mutations relating to first generation treatment resistance, were assessed in vitro using a 3D micro-epidermis model. The drug incubation concentrations (3, 10, 30, 100 nM) were selected to reflect the clinically relevant (unbound) drug exposures (Table 2). The drug impact was assessed by analysis of tissue size and keratinocyte proliferation using Ki-67 staining and keratinocyte differentiation using filaggrin, desmoglein-1 and involucrin staining. […]

desmoglein-1 (DSG1) [5] = experiment: as above; format: cell-based, human; settings: supplementary data, Tox = toxic; for activation at 1 µM: Homo sapiens, 72 h, read-out: DSG 1 μM
[6] = supplementary data, two runs, Tox = toxic
[7] = Table 3, 30 nM (EGFRi) or 100 nM (VEGFRi), 3 days, vs untreated control, superscript = significance footnote
[8] = Table 3, pro-proliferation or pro-differentiation
[9] = read-out: FLG 10 nM, 10 nM, supplementary data, two runs
[10] = read-out: FLG 100 nM, 100 nM, supplementary data, two runs, Tox = toxic
[11] = Table 1 summary of drug effect on epidermis
[12] = Table 1 summary, pro-differentiation / pro-proliferation
[13] = 1 μM, supplementary data, two runs, Tox = toxic
[14] = 100 nM, supplementary data, two runs, Tox = toxic, read-out: FLG 100 nM

Compound	IVL 10 μM (involucrin (IVL); [6])	Epidermis size [1, 7]	Classification [1, 8]	Dose in response ([1]; Table 3)	Dose/response [1]	FLG 3 nM (filaggrin (FLG); supplementary data)	FLG 30 nM (filaggrin (FLG); supplementary data)	FLG expression (filaggrin (FLG))	IVL 3 nM (involucrin (IVL); supplementary data)	IVL 10 nM (involucrin (IVL); supplementary data, two runs)	IVL 30 nM (involucrin (IVL); supplementary data)	activation at 0.1 µM (involucrin (IVL); [6])	IVL expression (involucrin (IVL))	activation at 0.1 µM (desmoglein-1 (DSG1) [4])	activation at 1 µM (desmoglein-1 (DSG1) [5]; 1 μM)	activation at 1 µM (involucrin (IVL); [13])	DSG 10 μM (desmoglein-1 (DSG1) [5])	FLG 10 μM (filaggrin (FLG); [6])	activation at 0.1 µM (filaggrin (FLG); [14])	activation at 1 µM (filaggrin (FLG); [13])	other results
CC(=O)Nc1ccc(O)cc1 [Acetaminophen]	10% and 8%	Unchanged^4	Unchanged	No	No	–	–	–	–	–	–	–	–	–	–	–	–	–	–	–	impact on all measured parameters / epidermis development [1]: no effect
C#Cc1cccc(Nc2ncnc3cc(OCCOC)c(OCCOC)cc23)c1 [Erlotinib]	–	Decreased^1	Pro-	No	No	6%	10%	Increased	13%	16%	22%	35%	Increased	36%	–	–	–	–	–	–	activation at 0.01 µM (filaggrin (FLG); [9]): 0%; activation at 0.1 µM (filaggrin (FLG); [10]): 34%; Cmax [2]: 1600 nM; Unbound fraction [2]: 5%; Major Skin Effect [3]: Papulo-pustular; Toxicity at 1 μM [1]: Yes; effect on desmoglein-1, involucrin and filaggrin expression (dose dependence) [1]: did not affect; Epidermis size [1, 11]: Decreased; Classification [1, 12]: Pro-differentiation; DSG 3 nM (desmoglein-1 (DSG1) [4]): −7%; DSG 30 nM (desmoglein-1 (DSG1) [4]): 1%; activation at 0.01 µM (desmoglein-1 (DSG1) [4]): -2%; DSG-1 expression (desmoglein-1 (DSG1) [4]): Increased
COc1cc2c(Nc3ccc(Br)cc3F)ncnc2cc1OCC1CCN(C)CC1 [Vandetanib]	–	–	–	–	–	–	–	–	–	–	–	25%	–	5%	30%	51%	–	–	–	–	–
CNC(=O)c1ccc(N2C(=S)N(c3ccc(C#N)c(C(F)(F)F)c3)C(=O)C2(C)C)cc1F [Enzalutamide]	2%	–	–	–	No	–	–	–	–	–	–	9.3%	–	-6%	-6%	6.2%	−12%	−1%	2%	9.8%	–
C=CC(=O)Nc1cc(Nc2nccc(-c3cn(C)c4ccccc34)n2)c(OC)cc1N(C)CCN(C)C [Osimertinib]	Tox	Unchanged^4	Unchanged	No	No	−12%	2%	Unchanged	6%	8%	7%	20%	Unchanged	18%	–	–	Tox	Tox	16%	–	DSG 1 μM (desmoglein-1 (DSG1) [5]; 1 μM): Tox; FLG 1 μM (filaggrin (FLG); [13]): Tox; activation at 0.01 µM (filaggrin (FLG); 10 nM, supplementary data, two runs, read-out: FLG 10 nM): -6%; IVL 1 μM (involucrin (IVL); [13]): Tox; Cmax [2]: 627 nM; Unbound concentration ([2]; unbound plasma concentration, identified or calculated from Cmax and unbound fraction): 8.2764 nM; Unbound fraction [2]: 1.32%*; effect on desmoglein-1, involucrin and filaggrin expression (dose dependence) [1]: did not affect; Epidermis size [1, 11]: Unchanged; Classification [1, 12]: Unchanged; impact on all measured parameters / epidermis development [1]: did not show any impact; also recorded: no impact; DSG 3 nM (desmoglein-1 (DSG1) [4]): −3%; DSG 30 nM (desmoglein-1 (DSG1) [4]): 7%; activation at 0.01 µM (desmoglein-1 (DSG1) [4]): -7%; DSG-1 expression (desmoglein-1 (DSG1) [4]): Unchanged
COc1cc2ncnc(Nc3ccc(F)c(Cl)c3)c2cc1OCCCN1CCOCC1 [Gefitinib]	–	Unchanged^4	Pro-	Yes	Yes (DSG)	10%	5%	Increased	23%	8%	23%	29%	Increased	41%	–	–	–	–	–	–	activation at 0.01 µM (filaggrin (FLG); [9]): 3%; activation at 0.1 µM (filaggrin (FLG); [10]): 28%; Cmax [2]: 356 nM; Unbound fraction [2]: 3.4%**; Toxicity at 1 μM [1]: Yes; effect on desmoglein-1, involucrin and filaggrin expression (dose dependence) [1]: increased in a dose-dependent manner only the expression of desmoglein-1; Epidermis size [1, 11]: Unchanged; Classification [1, 12]: Pro-differentiation; DSG 3 nM (desmoglein-1 (DSG1) [4]): −8%; DSG 30 nM (desmoglein-1 (DSG1) [4]): 15%; activation at 0.01 µM (desmoglein-1 (DSG1) [4]): 0%; DSG-1 expression (desmoglein-1 (DSG1) [4]): Increased
Cc1ccnc2c1NC(=O)c1cccnc1N2C1CC1 [Nevirapine]	20%	–	–	–	Yes (DSG)	–	–	–	–	–	–	17%	–	-8%	-15%	15%	−28%	2%	7%	8%	–
CCCS(=O)(=O)Nc1ccc(F)c(C(=O)c2c[nH]c3ncc(-c4ccc(Cl)cc4)cc23)c1F [Vemurafenib]	−40%	–	–	–	–	–	–	–	–	–	–	-11%	–	-26%	-33%	-24%	−58%	126%	23%	65%	–
CC#CC(=O)N1CCC[C@H]1c1nc(-c2ccc(C(=O)Nc3ccccn3)cc2)c2c(N)nccn12 [Acalabrutinib]	25%	–	–	–	–	–	–	–	–	–	–	11%	–	-26%	-15%	15%	−7.50%	33%	6%	15%	–
